Here are results for eight molecules from patent US9403755B2, “Isometheptene isomer” (TONIX PHARMACEUTICALS INC., priority 2013, dated 2016).

The conditions of data set [1]: cited from earlier work; for plasma half-life: human volunteers, enantiomers.
In another data set the target is 5-HT7 (Homo sapiens, UniProt P34969). Description: receptor binding screen, 5-HT7. The conditions noted are these: 5-HT7, 10 μM.
A further data set deals with T1, α2B-adrenergic receptor (Homo sapiens, UniProt P18089).
T1 sequence (P18089 1-450): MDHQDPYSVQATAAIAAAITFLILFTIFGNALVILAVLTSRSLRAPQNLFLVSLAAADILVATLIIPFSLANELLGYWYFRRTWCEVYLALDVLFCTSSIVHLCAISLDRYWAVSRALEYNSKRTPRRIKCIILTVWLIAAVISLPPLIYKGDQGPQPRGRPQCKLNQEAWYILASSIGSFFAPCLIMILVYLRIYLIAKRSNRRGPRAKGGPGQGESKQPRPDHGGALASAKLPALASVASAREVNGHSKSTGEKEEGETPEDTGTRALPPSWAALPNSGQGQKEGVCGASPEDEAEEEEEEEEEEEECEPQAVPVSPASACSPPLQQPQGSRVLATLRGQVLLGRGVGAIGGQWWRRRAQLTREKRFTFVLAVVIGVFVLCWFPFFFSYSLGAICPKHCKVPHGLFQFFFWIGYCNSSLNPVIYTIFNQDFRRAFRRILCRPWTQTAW
Description: ligand binding screen and equilibrium binding, α2B-adrenergic receptor. The conditions noted are these: Adrenergic a2B; for Ki: equilibrium binding; for inhibition at 10 µM: inhibition of ligand binding.

The next data set deals with T2, Adrenergic a2C (Homo sapiens, UniProt P18825).
T2 sequence (P18825 1-462): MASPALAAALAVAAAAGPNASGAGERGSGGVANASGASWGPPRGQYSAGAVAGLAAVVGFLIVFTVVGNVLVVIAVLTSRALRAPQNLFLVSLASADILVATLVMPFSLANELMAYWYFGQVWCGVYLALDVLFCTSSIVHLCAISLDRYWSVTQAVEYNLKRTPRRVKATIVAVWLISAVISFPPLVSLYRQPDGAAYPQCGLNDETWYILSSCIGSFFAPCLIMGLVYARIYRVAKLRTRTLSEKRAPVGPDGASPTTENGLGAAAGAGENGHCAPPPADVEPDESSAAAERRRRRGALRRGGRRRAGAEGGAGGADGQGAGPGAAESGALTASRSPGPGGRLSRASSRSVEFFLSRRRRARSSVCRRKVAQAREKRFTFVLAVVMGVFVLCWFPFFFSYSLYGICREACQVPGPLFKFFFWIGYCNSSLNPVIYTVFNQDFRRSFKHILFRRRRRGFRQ
The data set can be described thus: receptor binding screen, Adrenergic a2C.

The subject of data set [2] is Imidazoline 1 (I1) receptor. The data set can be described thus: Imidazoline I1 receptor radioligand binding assay. More on the design: species or system bovine. As to conditions: for Ki: Imidazoline-1 (I1), equilibrium binding. As to the method: Evaluation of the Affinity of Compounds for the Peripheral Imidazoline Receptor in Bovine Adrenal Medulla Glands Determined in a Radioligand Binding Assay.
Membrane homogenates of adrenal medulla glands (200 μg protein) are incubated for 60 min at 22° C. with 15 nM [^3H]clonidine in the absence or presence of the test compound in a buffer containing 137 mM NaCl, 2.68 mM KCl, 0.5 mM MgCl2, 8.1 mM Na2HPO4, 1.47 mM KH2PO4, 0.5 mM EGTA, 0.5 mM EDTA, 0.5% ascorbic acid and 0.1% BSA (pH 7.4). It also contains 10 μM RX821002 to block the α2-adrenergic receptors.
Nonspecific binding is determined in the presence of 10 μM rilmenidine.
Following incubation, the samples are filtered rapidly under vacuum through glass fiber filters (GF/B, Packard) presoaked with 0.3% PEI and rinsed several times with ice-cold 50 mM Tris-HCl using a 96-sample cell harvester (Unifilter, Packard). The filters are dried then counted for radioactivity in a scintillation counter (Topcount, Packard) using a scintillation cocktail (Microscint 0, Packard).
The results are expressed as a percent inhibition of the control radioligand specific binding.
The standard reference compound is rilmenidine, which is tested in each experiment at several concentrations to obtain a competition curve from which its IC50 is calculated.
Bibliographic reference: MOLDERINGS, G. J., MOURA, D., FINK, K., BONISCH, H. and GOTHERT, M. (1993), Binding of [3H]clonidine to I1-imidazoline sites in bovine adrenal medullary membranes, Naun.-Sch. Arch. Pharm., 348: 70.

The target in data set [3] is Imidazoline-2 (I2) receptor. Description: central Imidazoline I2 receptor radioligand binding assay. On the set-up: species or system rat. As to the method: Evaluation of the Affinity of Compounds for the Central Imidazoline I2 Receptor in the Rat Cerebral Cortex Determined in a Radioligand Binding Assay.
Membrane homogenates of cerebral cortex (1 mg protein) are incubated for 30 min at 22° C. with 2 nM [^3H]idazoxan in the absence or presence of the test compound in a buffer containing 50 mM Tris-HCl (pH 7.4), 0.5 mM EDTA and 3 μM yohimbine.
Nonspecific binding is determined in the presence of 10 μM cirazoline.
Following incubation, the samples are filtered rapidly under vacuum through glass fiber filters (Filtermat B, Wallac) presoaked with 0.3% PEI and rinsed several times with an ice-cold buffer containing 50 mM Tris-HCl and 150 mM NaCl using a 48-sample cell harvester (Mach II, Tomtec). The filters are dried then counted for radioactivity in a scintillation counter (Betaplate 1204, Wallac) using a solid scintillator (Meltilex B/HS, Wallac).
The results are expressed as a percent inhibition of the control radioligand specific binding. The standard reference compound is idazoxan, which is tested in each experiment at several concentrations to obtain a competition curve from which its IC50 is calculated.
Bibliographic reference: BROWN, C. M., MAC KINNON, A. C., McGRATH, J. C., SPEDDING, M. and KILPATRICK A. T. (1990), α2-adrenoceptor subtypes and imidazoline-like binding sites in the rat brain, Brit. J. Pharmacol, 99: 803.

Data set [4] deals with Sigma receptor (non-selective). The data set can be described thus: ligand binding screen, non-selective Sigma receptor. As to conditions: Sigma (non-select), inhibition of ligand binding.
The target in the next data set is Sigma-1 receptor (Homo sapiens, UniProt Q99720). The data set can be described thus: equilibrium binding, Sigma-1 receptor. The conditions noted are these: Sigma 1, equilibrium binding.
Chain of Sigma-1 receptor (Q99720 whole entry, species assumed): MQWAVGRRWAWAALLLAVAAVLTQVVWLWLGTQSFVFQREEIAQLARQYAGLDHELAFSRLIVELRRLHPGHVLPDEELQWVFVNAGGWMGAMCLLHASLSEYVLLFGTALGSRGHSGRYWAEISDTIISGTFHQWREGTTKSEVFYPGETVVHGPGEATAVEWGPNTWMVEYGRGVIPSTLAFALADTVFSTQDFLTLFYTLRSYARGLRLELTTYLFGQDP
For another data set, the target named is Sigma-2 receptor (Homo sapiens, UniProt Q5BJF2). Description: equilibrium binding, Sigma-2 receptor. As to conditions: Sigma 2, equilibrium binding.
Chain of Sigma-2 receptor (Q5BJF2 whole entry, species assumed): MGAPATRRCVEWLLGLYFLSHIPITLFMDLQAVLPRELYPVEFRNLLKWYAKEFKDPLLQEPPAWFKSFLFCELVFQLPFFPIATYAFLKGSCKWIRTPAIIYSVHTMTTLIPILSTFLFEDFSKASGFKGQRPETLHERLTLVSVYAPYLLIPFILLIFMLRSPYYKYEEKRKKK
The target of another data set is T3, human TAAR1 receptor (Homo sapiens, UniProt Q96RJ0).
T3 sequence (Q96RJ0 1-339): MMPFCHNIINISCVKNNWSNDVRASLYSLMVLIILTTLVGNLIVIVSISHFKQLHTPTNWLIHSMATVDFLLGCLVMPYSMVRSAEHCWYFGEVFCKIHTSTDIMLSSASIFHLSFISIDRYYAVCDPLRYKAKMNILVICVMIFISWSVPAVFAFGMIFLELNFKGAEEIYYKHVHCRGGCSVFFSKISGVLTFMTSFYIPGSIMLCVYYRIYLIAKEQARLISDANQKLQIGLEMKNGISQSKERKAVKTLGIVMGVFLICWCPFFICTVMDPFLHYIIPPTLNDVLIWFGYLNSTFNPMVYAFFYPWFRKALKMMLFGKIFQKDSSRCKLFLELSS
Description: TAAR1 cAMP Biosensor Assay. It counts as cell-based. The conditions noted are these: for Efficacy: TAAR1 activation, final concentration of 10 μM, free base; for EC50: TAAR1 cAMP accumulation, agonist dose response, mucate salts. As to the method: To measure interactions with TAAR1, cell line stably expressing a recombinant human TAAR1 receptor were studied in the cAMP Biosensor Assay (DiscoveRx, Freemont, Calif.) since TAAR1 is coupled to G-proteins that signal through cAMP. The (S)- and (R)-Isometheptene isomers at a final concentration of 10 μM activate TAAR1 differentially, as shown on the table below, wherein (S)-Isometheptene activates more effectively than the R-Isometheptene. These activities may be linked to side-effects of racemic Isometheptene, due to the interaction of S-Isometheptene to the TAAR1 tyramine receptor.
Isometheptene Mucate USP, Isometheptene Mucate isomer 1, Isometheptene Mucate isomer 2 and p-Tyramine (control) in the TAAR1 cAMP Biosensor Assay of FIG. 23 as shown by the following diagrams (A), (B), (C), and (D). The data is shown as an agonist dose response curve, normalized to the maximal and minimal response observed in the presence of control ligand and vehicle respectively
The cAMP Hunter cell line expressing human TAAR1 was expanded from freezer stocks according to standard procedures. Cells were seeded in a total volume of 20 μL into white walled, 384-well microplates and incubated at 37° C. for the appropriate time prior to testing. cAMP modulation was determined using the DiscoveRx HitHunter cAMP XS+ assay. For agonist determination, cells were incubated with sample to induce response. Media was aspirated from cells and replaced with 15 μL 2:1 HBSS/10 mM Hepes:cAMP XS+ Ab reagent. Intermediate dilution of sample stocks was performed to generate 4× sample in assay buffer. 4.5 μL of 4× sample was added to cells and incubated at 37° C. or room temperature for 30 or 60 minutes. Final assay vehicle concentration was 1%. After appropriate compound incubation, assay signal was generated through incubation with 20 μL cAMP XS+ ED/CL lysis cocktail for one hour followed by incubation with 20 μL cAMP XS+ EA reagent for three hours at room temperature. Microplates were read following signal generation with a PerkinElmer Envision™ instrument for chemiluminescent signal detection. Compound activity was analyzed using CBIS data analysis suite (ChemInnovation, CA). For Gs agonist mode assays, percentage activity was calculated using the following formula: % Activity=100%×(mean RLU of test sample−mean RLU of vehicle control)/(mean RLU of MAX control−mean RLU of vehicle control).
In general terms: Cyclic AMP is a second messenger, typically raised through Gs and lowered through Gi signalling.

For a further data set, the target named is T4, 5-HT 1A (Homo sapiens, UniProt P08908).
T4 sequence (P08908 1-422): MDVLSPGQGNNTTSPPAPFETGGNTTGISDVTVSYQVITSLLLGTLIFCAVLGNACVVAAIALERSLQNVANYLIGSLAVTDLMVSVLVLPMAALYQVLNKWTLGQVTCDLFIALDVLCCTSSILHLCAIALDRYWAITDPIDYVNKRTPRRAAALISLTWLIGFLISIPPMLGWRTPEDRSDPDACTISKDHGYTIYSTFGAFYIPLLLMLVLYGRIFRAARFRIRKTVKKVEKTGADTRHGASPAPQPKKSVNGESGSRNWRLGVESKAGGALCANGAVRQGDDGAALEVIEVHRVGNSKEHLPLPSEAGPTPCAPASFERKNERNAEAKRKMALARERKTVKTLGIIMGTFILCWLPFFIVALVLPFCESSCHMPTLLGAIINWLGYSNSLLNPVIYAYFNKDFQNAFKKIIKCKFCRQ
Description: receptor binding screen, 5-HT 1A.

For data set [5] the following is noted: hydrochloride or mucate salt form; cited from earlier work.

Chain of 5-HT7 (P34969 whole entry, species assumed): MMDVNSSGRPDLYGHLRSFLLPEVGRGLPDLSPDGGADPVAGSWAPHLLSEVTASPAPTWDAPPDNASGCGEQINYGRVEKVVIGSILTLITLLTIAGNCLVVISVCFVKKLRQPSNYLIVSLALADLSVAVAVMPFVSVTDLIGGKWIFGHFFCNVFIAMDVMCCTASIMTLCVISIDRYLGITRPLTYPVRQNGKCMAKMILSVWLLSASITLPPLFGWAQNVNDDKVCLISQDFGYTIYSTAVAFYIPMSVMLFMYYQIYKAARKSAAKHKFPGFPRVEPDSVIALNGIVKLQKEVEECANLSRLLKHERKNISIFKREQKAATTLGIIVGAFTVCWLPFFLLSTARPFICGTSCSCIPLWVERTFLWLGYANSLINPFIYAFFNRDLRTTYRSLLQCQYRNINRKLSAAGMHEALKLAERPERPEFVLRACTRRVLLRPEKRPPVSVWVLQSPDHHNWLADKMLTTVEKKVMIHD

`CN[C@H](C)Cc1ccc2c(c1)OCO2` [(R)-MDMA, (R)-3,4-methylenedioxy-N-methylamphetamine]: the “area under the blood plasma concentration versus time curve (AUC), (R)-MDMA relative to (S)-MDMA” value in data set [1] (40 mg oral dose in human volunteers) was “two to four times higher”. In addition, the plasma half-life in data set [1] was 5.8 ± 2.2 h.
Turning to `CN[C@@H](C)Cc1ccc2c(c1)OCO2` [(S)-MDMA], the plasma half-life in [1] is 3.6 ± 0.9 h.
Usually inhibition stands for how much of the control response was suppressed. Low readings indicate a response near the control, high ones a response far below the control. The Ki is a measure of affinity in units of concentration, obtained from inhibition or displacement. A high value points to lower affinity. For the molecule `CNC(C)CCC=C(C)C` (single isomer, unassigned) [Isomer 2], the results for the inhibition at 10 µM on 5-HT7, at α2B-adrenergic receptor and at Adrenergic a2C were 31%, 57% and 0%, respectively. Moreover, the Ki at α2B-adrenergic receptor was determined as 2300 nM; in data set [2], 18 nM; in data set [3] it was 1500 nM; on Sigma-1 receptor, 1900 nM; at Sigma-2 receptor it was 5600 nM. In [2] ((R) versus (S) enantiomer), the “binding to I1 receptor more avidly than the (S)-Isometheptene enantiomer” value is “about 60 fold”. Besides, the “Inhibition @ 10 μM(%)” value in data set [3] and in data set [4] was 86% in each case. In addition, the Efficacy on human TAAR1 receptor was found to be 25.6%.
The EC50 is the concentration that produces a half-maximal response. Turning to `O=C(O)[C@@H](O)[C@H](O)[C@H](O)[C@@H](O)C(=O)O` (single isomer, unassigned) [Isometheptene Mucate Isomer 2], the EC50 at human TAAR1 receptor came to 29500 nM.
Consider `CNC(C)CCC=C(C)C` (racemic) [Racemic, reference compound], for which the inhibition at 10 µM on 5-HT 1A is 37%; on 5-HT7, 46%; on α2B-adrenergic receptor it was 76%; on Adrenergic a2C it was 41%. Further, the solubility in water entry in data set [5] was “soluble in water”.
Regarding `CN[C@@H](C)CCC=C(C)C` (single isomer, unassigned) [Isometheptene Mucate Isomer 1], the concentration giving a half-maximal response (EC50) on human TAAR1 receptor turned out to be 21100 nM.
For the molecule `CN[C@@H](C)CCC=C(C)C` (single isomer, unassigned) [Isomer 1], the inhibition at 10 µM at 5-HT7 was found to be 13%; at α2B-adrenergic receptor, 29%; on Adrenergic a2C, 0%. Also, the Ki was 2700 nM on α2B-adrenergic receptor; 1100 nM in data set [2]; 1100 nM in data set [3]; 2100 nM on Sigma-1 receptor; 5200 nM on Sigma-2 receptor. Also, the “interaction with I1 less avidly than the R-Isometheptene enantiomer” value in [2] ((S) versus (R) enantiomer) was “about 60 fold”. In addition, the results for the “Inhibition @ 10 μM(%)” value in data set [3] and in data set [4] were 84% and 87%, respectively. Moreover, the Efficacy on human TAAR1 receptor came out at 49.4%.
Turning to `CNC(C)Cc1ccc2c(c1)OCO2` (racemic) [MDMA, 3,4-methylenedioxy-N-methylamphetamine], the half-life result in [1] (given as the racemate) is given as “around 8 hours”.
